Like-named read-outs stand apart in the source and are kept apart here.
Assays:
[1] = system: New Zealand White rabbits; conditions: methionine (5-25 mM) in vehicle, intravitreal 50 μL/eye up to six times, 14 days apart
Protocol: (§1) Three studies (in cynomolgus monkeys and in New Zealand White rabbits) were conducted in which methionine (5-25 mM) was a component of the vehicle, administered intravitreally (also 50 μL/eye) up to six times, 14 days apart.

[2] = system: cynomolgus monkeys; conditions: 14 days apart
Protocol: A toxicity study in cynomolgus monkeys was conducted in which methionine (10 mM) was a component of the vehicle and of the formulated test article CrossMAb VEGFang2-0016 (faricimab). In this study, a total of 12 animals (6 males/6 females) were treated intravitreal with 50 μL/eye two times, 14 days apart. The left eyes were treated with the vehicle (containing 10 mM methionine) and the right eyes were treated with the formulated test article CrossMAb VEGFang2-0016 (faricimab), also containing 10 mM methionine.
as §1

[3] = target: TIE2 (Homo sapiens, UniProt Q02763); conditions: Maisonpierre et al., Science 277 (1997); read-out: affinity to TIE2 (Kd); cited from earlier work
TIE2, sequence (Q02763 23-1124, species assumed): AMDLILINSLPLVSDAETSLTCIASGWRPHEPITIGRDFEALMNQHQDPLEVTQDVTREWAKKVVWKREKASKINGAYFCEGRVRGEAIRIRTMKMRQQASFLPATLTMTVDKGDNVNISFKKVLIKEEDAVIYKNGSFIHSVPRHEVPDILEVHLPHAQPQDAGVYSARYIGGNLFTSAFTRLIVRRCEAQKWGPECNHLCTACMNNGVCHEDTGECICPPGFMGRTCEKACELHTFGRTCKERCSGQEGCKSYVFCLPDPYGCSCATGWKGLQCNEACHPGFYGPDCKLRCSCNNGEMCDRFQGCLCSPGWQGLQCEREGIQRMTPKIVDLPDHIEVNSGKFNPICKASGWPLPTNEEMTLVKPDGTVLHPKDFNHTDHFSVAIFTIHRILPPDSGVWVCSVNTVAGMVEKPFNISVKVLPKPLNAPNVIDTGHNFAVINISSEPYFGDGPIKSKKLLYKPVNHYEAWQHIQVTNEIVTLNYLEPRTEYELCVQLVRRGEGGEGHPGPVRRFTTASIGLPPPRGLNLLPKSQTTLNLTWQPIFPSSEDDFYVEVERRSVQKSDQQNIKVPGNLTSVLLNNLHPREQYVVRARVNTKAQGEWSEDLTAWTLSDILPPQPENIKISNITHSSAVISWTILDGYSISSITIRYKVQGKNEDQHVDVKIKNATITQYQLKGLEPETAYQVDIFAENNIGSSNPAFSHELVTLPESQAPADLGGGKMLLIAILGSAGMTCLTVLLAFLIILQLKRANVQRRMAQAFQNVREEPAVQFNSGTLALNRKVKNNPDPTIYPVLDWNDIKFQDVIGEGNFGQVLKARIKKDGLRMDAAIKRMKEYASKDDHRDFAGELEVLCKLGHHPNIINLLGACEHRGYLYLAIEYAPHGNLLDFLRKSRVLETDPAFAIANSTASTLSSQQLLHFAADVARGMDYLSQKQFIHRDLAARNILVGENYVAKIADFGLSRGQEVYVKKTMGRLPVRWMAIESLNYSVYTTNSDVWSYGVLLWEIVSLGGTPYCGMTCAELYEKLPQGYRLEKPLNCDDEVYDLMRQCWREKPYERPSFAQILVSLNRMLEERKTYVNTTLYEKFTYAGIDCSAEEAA

Molecule	ocular effects of methionine [1]	ocular effects of methionine ([2]; 10 mM methionine in vehicle and formulated faricimab, intravitreal 50 μL/eye two times)	ocular effects of methionine ([2]; methionine (5-25 mM) in vehicle, intravitreal 50 μL/eye up to six times)	Kd [3]
CSCC[C@H](N)C(=O)O [methionine]	no ocular effects	no ocular effects	no ocular effects	–
Ang-1: angiopoietin-1, ligand of TIE2 (protein, UniProt Q15389 16-498, looked up) Angiopoietin-1: HIGCSNQRRSPENSGRRYNRIQHGQCAYTFILPEHDGNCRESTTDQYNTNALQRDAPHVEPDFSSQKLQHLEHVMENYTQWLQKLENYIVENMKSEMAQIQQNAVQNHTATMLEIGTSLLSQTAEQTRKLTDVETQVLNQTSRLEIQLLENSLSTYKLEKQLLQQTNEILKIHEKNSLLEHKILEMEGKHKEELDTLKEEKENLQGLVTRQTYIIQELEKQLNRATTNNSVLQKQQLELMDTVHNLVNLCTKEGVLLKGGKREEEKPFRDCADVYQAGFNKSGIYTIYINNMPEPKKVFCNMDVNGGGWTVIQHREDGSLDFQRGWKEYKMGFGNPSGEYWLGNEFIFAITSQRQYMLRIELMDWEGNRAYSQYDRFHIGNEKQNYRLYLKGHTGTAGKQSSLILHGADFSTKDADNDNCMCKCALMLTGGWWFDACGPSNLNGMFYTAGQNHGKLNGIKWHYFKGPSYSLRSTTMMIRPLDF	–	–	–	3 nM

Source: US12503503B2, “Bispecific anti-VEGF/ANG2 antibody formulation” (Hoffmann-La Roche Inc., priority 2018, dated 2025)
